Data from the supplement of paper PMC10307832.

How the values were obtained:
Assay in all cases: relative viability (nuclei count vs DMSO), 5 days (fraction); higher = more cells survive
Veliparib + Decitabine = compound: C[C@]1(c2nc3c(C(N)=O)cccc3[nH]2)CCCN1 [Veliparib] + Nc1ncn([C@H]2C[C@H](O)[C@@H](CO)O2)c(=O)n1 [Decitabine] (partner 2 µM)
How it was run: (§1)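 Lung cancer cell lines were seeded in 1536-well plates and dosed by pin tool the next day, with either a single drug or a fixed anchor-drug dose combined with five library-drug doses (not always all listed) spaced in √10 steps. Five days later, one step fixed the cells and stained their nuclei (final 0.05% Triton X-100, 1% formaldehyde, 1 ug/ml Hoechst), and nuclei were counted on 4× images. Relative viability is the nuclei count in treated wells divided by the count in vehicle wells, and each value is the median of duplicate plates.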

Veliparib + Trametinib = compound: C[C@]1(c2nc3c(C(N)=O)cccc3[nH]2)CCCN1 [Veliparib] + CC(=O)Nc1cccc(-n2c(=O)n(C3CC3)c(=O)c3c(Nc4ccc(I)cc4F)n(C)c(=O)c(C)c32)c1 [Trametinib] (partner 0.02 µM)
How it was run: as §1

Veliparib + Tozasertib = compound: C[C@]1(c2nc3c(C(N)=O)cccc3[nH]2)CCCN1 [Veliparib] + Cc1cc(Nc2cc(N3CCN(C)CC3)nc(Sc3ccc(NC(=O)C4CC4)cc3)n2)n[nH]1 [Tozasertib] (partner 0.1 µM)
How it was run: as §1

[1] = compound: COC1=CC=C(C=C1)CN2C=CC3=C2C=C(C=C3)C(=O)NO + C[C@@H](Oc1cc(-c2cnn(C3CCNCC3)c2)cnc1N)c1c(Cl)ccc(F)c1Cl [Crizotinib] (partner 1 µM)
How it was run: as §1

With SW 1573 the relative viability (Veliparib + Decitabine; first compound 0.02 µM) was 0.29, the relative viability (Veliparib + Decitabine; first compound 0.06325 µM) was 0.289 and the relative viability (Veliparib + Decitabine; first compound 0.2 µM) was 0.287. The relative viability (Veliparib + Decitabine; first compound 0.6325 µM) was 0.361, the relative viability (Veliparib + Decitabine; first compound 2 µM) was 0.298 and the relative viability (Veliparib + Trametinib; first compound 0.06325 µM) was 0.474. The relative viability (Veliparib + Trametinib; first compound 0.2 µM) was 0.52, the relative viability (Veliparib + Trametinib; first compound 0.6325 µM) was 0.513 and the relative viability (Veliparib + Trametinib; first compound 2 µM) was 0.548. It also gave a relative viability (Veliparib + Tozasertib; first compound 0.06325 µM) of 0.175, a relative viability (Veliparib + Tozasertib; first compound 0.2 µM) of 0.17 and a relative viability (Veliparib + Tozasertib; first compound 0.6325 µM) of 0.204. For the same cell line, the relative viability (Veliparib + Tozasertib; first compound 2 µM) was 0.175, the relative viability ([1]; first compound 0.253 µM) was 0.908 and the relative viability ([1]; first compound 0.8 µM) was 0.803. For the same cell line, the relative viability ([1]; first compound 2.53 µM) was 0.755 and the relative viability ([1]; first compound 8 µM) was 0.587.
